Data from ChEMBL document CHEMBL4396910, “Endomorphin-2 analogs containing modified tyrosines: Biological and theoretical investigation of the influence on conformation and pharmacological profile” (Eur J Med Chem, 2019).
pEC50, pKi: −log10 of the molar value.

Assays:
[1] = n-Octanol/water partition coefficient, log P of compound at 50 ug at pH 7.4 measured after 2 mins by RP-HPLC analysis; format: physicochemical; conditions: pH 7.4, 2 min
[2] = biological target: Kappa-type opioid receptor (Homo sapiens, UniProt P41145); experiment: Displacement of [3H]U-69593 from human recombinant KOR expressed in CHO cell membranes incubated for 2 hrs by liquid scintillation counting method
Kappa-type opioid receptor, sequence (P41145 whole entry): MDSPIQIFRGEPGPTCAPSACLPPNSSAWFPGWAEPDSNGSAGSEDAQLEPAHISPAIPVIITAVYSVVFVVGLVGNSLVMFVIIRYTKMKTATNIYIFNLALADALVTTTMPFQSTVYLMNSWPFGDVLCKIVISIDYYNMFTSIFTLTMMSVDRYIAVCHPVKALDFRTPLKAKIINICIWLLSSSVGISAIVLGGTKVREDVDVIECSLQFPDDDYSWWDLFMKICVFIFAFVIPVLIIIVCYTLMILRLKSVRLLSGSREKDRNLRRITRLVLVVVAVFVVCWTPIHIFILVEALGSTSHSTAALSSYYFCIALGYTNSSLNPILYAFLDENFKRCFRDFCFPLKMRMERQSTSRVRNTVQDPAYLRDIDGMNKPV

[3] = Retention time of the compound by RP-HPLC analysis; format: physicochemical
Mu-type opioid receptor [4] = biological target: T1, Mu-type opioid receptor (Homo sapiens, UniProt P35372); experiment: Agonist activity at human recombinant MOR expressed in CHO cells co-expressing C-terminally modified Galphaqi5 assessed as induction of calcium mobilization by Fluo-4AM dye-based fluorescence assay; format: functional, cell-based
T1 sequence (P35372 whole entry): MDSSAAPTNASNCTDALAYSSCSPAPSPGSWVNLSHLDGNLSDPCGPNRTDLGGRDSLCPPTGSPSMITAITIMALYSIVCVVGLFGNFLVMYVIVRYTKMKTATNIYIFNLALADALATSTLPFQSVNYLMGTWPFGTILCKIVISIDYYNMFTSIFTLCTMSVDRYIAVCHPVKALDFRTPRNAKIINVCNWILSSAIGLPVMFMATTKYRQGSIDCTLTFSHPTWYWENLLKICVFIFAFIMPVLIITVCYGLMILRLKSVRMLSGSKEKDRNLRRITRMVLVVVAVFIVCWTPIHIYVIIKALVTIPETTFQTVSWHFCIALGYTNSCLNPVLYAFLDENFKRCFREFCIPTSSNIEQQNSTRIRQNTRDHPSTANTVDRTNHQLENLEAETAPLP

[5] = biological target: Delta-type opioid receptor (Homo sapiens, UniProt P41143); experiment: Displacement of [3H]deltrophin-2 from human recombinant DOR expressed in CHO cell membranes incubated for 2 hrs by liquid scintillation counting method
Delta-type opioid receptor, sequence (P41143 whole entry): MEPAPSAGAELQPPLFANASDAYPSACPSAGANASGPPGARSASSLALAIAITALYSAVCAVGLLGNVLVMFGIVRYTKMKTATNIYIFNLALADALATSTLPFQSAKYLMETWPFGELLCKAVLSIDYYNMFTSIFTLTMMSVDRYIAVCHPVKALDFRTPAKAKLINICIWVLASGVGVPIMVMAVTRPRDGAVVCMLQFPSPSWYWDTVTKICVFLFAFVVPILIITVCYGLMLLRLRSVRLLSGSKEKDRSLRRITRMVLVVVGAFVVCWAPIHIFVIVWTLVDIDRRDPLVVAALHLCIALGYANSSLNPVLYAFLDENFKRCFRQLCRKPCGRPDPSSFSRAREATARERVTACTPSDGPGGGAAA

Mu-type opioid receptor [6] = biological target: T1, Mu-type opioid receptor; experiment: Displacement of [3H]DAMGO from human recombinant MOR expressed in CHO cell membranes incubated for 2 hrs by liquid scintillation counting method
Mu-type opioid receptor [7] = biological target: T1, Mu-type opioid receptor; experiment: Agonist activity at human recombinant MOR expressed in CHO cells co-expressing C-terminally modified Galphaqi5 assessed as induction of calcium mobilization by Fluo-4AM dye-based fluorescence assay relative to endomorphin-2; format: functional, cell-based
Mu-type opioid receptor [8] = biological target: T1, Mu-type opioid receptor; experiment: Potency index, ratio of endomorphin Ki to compound Ki for human recombinant MOR expressed in CHO cell membranes using [3H]DAMGO by radioligand binding assay

Row | Structure (SMILES) | logP [1] | pKi [2] | Retention_time [3] | pEC50 (Mu-type opioid receptor [4]) | pKi [5] | pKi (Mu-type opioid receptor [6]) | Intrinsic activity (Mu-type opioid receptor [7]) | Ratio Ki (Mu-type opioid receptor [8])
1 | NC(=O)[C@H](Cc1ccccc1)NC(=O)[C@H](Cc1ccccc1)NC(=O)[C@@H]1CCCN1C(=O)[C@@H](N)Cc1ccc(O)cc1 [ENDOMORPHIN 2] | 1.13 | – | – | – | – | – | – | –
2 | Cc1cc(O)c(Cl)c(C)c1C[C@H](N)C(=O)N1CCC[C@H]1C(=O)N[C@@H](Cc1ccccc1)C(=O)N[C@@H](Cc1ccccc1)C(N)=O | 1.8 | 7.43 | 16.122 | 9.21 | 6.05 | 9.59 | 0.92 | –
3 | COc1cc(C[C@H](N)C(=O)N2CCC[C@H]2C(=O)N[C@@H](Cc2ccccc2)C(=O)N[C@@H](Cc2ccccc2)C(N)=O)cc(OC)c1O | 0.67 | 5.35 | 14.83 min | 8.10 | 4.97 | 8.36 | 1.1 | –
4 | Cc1cc(C[C@H](N)C(=O)N2CCC[C@H]2C(=O)N[C@@H](Cc2ccccc2)C(=O)N[C@@H](Cc2ccccc2)C(N)=O)cc(C)c1O | 1.78 | 5.33 | 16.508 min | 8.02 | 5.28 | 8.30 | 1.04 | –
5 | Cc1cc(O)cc(C)c1C[C@H](N)C(=O)N1CCC[C@H]1C(=O)N[C@@H](Cc1ccccc1)C(=O)N[C@@H](Cc1ccccc1)C(N)=O | 1.98 | – | 16.484 min | 8.78 | 6.55 | 9.09 | 0.91 | 4
6 | NC(=O)[C@H](Cc1ccccc1)NC(=O)[C@H](Cc1ccccc1)NC(=O)[C@@H]1CCCN1C(=O)[C@@H](N)Cc1cccc(O)c1 | 1.37 | 5.04 | 15.168 min | 7.35 | 4.90 | 7.72 | 0.87 | –
